Measurements: ChEMBL document CHEMBL1201862, “PubChem BioAssay data set” (2004)
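96-well plates; 48 h exposure; 5 concentrations. Endpoints by linear interpolation between flanking doses. Not reached: highest tested concentration assigned. GI50 = concentration required for 50% inhibition of growth.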 Calls of active or inactive are those of the source. Rule as the data show it: active = GI50 up to about 1.1 µM and inactive = higher.

Tests used:
Experiment in all cases: inhibition of tumour cell growth, NCI panel, 48 h
[1] = system: SK-MEL-2
[2] = system: SNB-19
[3] = system: SNB-75
[4] = system: EKVX
[5] = system: LOX IMVI
[6] = system: NCI-H460
[7] = system: NCI-H23
[8] = system: HL-60
[9] = system: OVCAR-5
[10] = system: A549
[11] = system: OVCAR-3
[12] = system: SW-620
[13] = system: SK-MEL-5
[14] = system: SK-MEL-28
[15] = system: CCRF-CEM
[16] = system: A498
[17] = system: RXF 393
[18] = system: Malme-3M
[19] = system: SF-268
[20] = system: HCC 2998

SMILES | GI50 [1] | GI50 [2] | GI50 [3] | GI50 [4] | GI50 [5] | GI50 [6] | GI50 [7] | GI50 [8] | GI50 [9] | GI50 [10] | GI50 [11] | GI50 [12] | GI50 [13] | GI50 [14] | GI50 [15] | GI50 [16] | GI50 [17] | GI50 [18] | GI50 [19] | GI50 [20]
CC(C(=O)NCCNC(=O)CCCC(=O)N(C)O)C(=O)NCCNC(=O)CCCC(=O)N(C)O | > 100 µM (inactive) | > 100 µM (inactive) | > 100 µM (inactive) | > 100 µM (inactive) | > 100 µM (inactive) | > 100 µM (inactive) | > 100 µM (inactive) | > 100 µM (inactive) | > 100 µM (inactive) | > 100 µM (inactive) | > 100 µM (inactive) | > 100 µM (inactive) | > 100 µM (inactive) | 20.1 µM (inactive) | > 100 µM (inactive) | > 100 µM (inactive) | > 100 µM (inactive) | > 100 µM (inactive) | > 100 µM (inactive) | > 100 µM (inactive)
COC1C(O)C(n2ncc3c(SC)nc(SC)nc32)OC1C(O)CO (stereo not given) | > 100 µM (inactive) | > 100 µM (inactive) | > 100 µM (inactive) | > 100 µM (inactive) | > 100 µM (inactive) | > 100 µM (inactive) | > 100 µM (inactive) | > 100 µM (inactive) | > 100 µM (inactive) | > 100 µM (inactive) | > 100 µM (inactive) | > 100 µM (inactive) | > 100 µM (inactive) | > 100 µM (inactive) | > 100 µM (inactive) | > 100 µM (inactive) | > 100 µM (inactive) | > 100 µM (inactive) | > 100 µM (inactive) | > 100 µM (inactive)
Nc1ccccc1S(=O)(=O)c1ccccc1 | > 100 µM (inactive) | > 100 µM (inactive) | 41.1 µM (inactive) | > 100 µM (inactive) | > 100 µM (inactive) | > 100 µM (inactive) | > 100 µM (inactive) | > 100 µM (inactive) | > 100 µM (inactive) | > 100 µM (inactive) | > 100 µM (inactive) | > 100 µM (inactive) | > 100 µM (inactive) | > 100 µM (inactive) | > 100 µM (inactive) | > 100 µM (inactive) | > 100 µM (inactive) | > 100 µM (inactive) | > 100 µM (inactive) | > 100 µM (inactive)
O=C(O)c1ccc(Nc2c3ccccc3nc3ccccc23)cc1 | > 100 µM (inactive) | > 86.7 µM (inactive) | > 83.9 µM (inactive) | > 100 µM (inactive) | 60.8 µM (inactive) | 22.6 µM (inactive) | > 72.3 µM (inactive) | 47.9 µM (inactive) | > 100 µM (inactive) | 41.2 µM (inactive) | > 100 µM (inactive) | 59.7 µM (inactive) | > 68.1 µM (inactive) | > 100 µM (inactive) | 26.9 µM (inactive) | 52.6 µM (inactive) | > 100 µM (inactive) | 43.3 µM (inactive) | 67.9 µM (inactive) | > 100 µM (inactive)
COc1cc2c(oc(=O)c3cc(C)cc(OC)c32)c2c(C3OC(C)C(O)C(C)(O)C3O)ccc(O)c12 (stereo not given) | 0.794 µM (active) | 0.562 µM (active) | 0.571 µM (active) | 0.776 µM (active) | 0.32 µM (active) | 0.142 µM (active) | 0.223 µM (active) | 0.045 µM (active) | 0.681 µM (active) | 0.439 µM (active) | 0.785 µM (active) | 0.312 µM (active) | 0.581 µM (active) | 0.861 µM (active) | 0.0955 µM (active) | 0.465 µM (active) | 0.38 µM (active) | 0.673 µM (active) | 0.349 µM (active) | 0.665 µM (active)
O=C1NC(=O)C(CCO)(c2ccccc2)C(=O)N1 | > 100 µM (inactive) | > 100 µM (inactive) | > 100 µM (inactive) | > 100 µM (inactive) | > 31.6 µM (inactive) | > 100 µM (inactive) | > 100 µM (inactive) | > 100 µM (inactive) | > 100 µM (inactive) | > 100 µM (inactive) | > 100 µM (inactive) | > 100 µM (inactive) | > 100 µM (inactive) | > 100 µM (inactive) | > 100 µM (inactive) | > 100 µM (inactive) | > 100 µM (inactive) | > 100 µM (inactive) | > 100 µM (inactive) | > 100 µM (inactive)
CCOC(=O)c1c[nH]c2cc3c(cc2c1=O)CCS3(=O)=O.CCOC(=O)c1c[nH]c2ccc3c(c2c1=O)S(=O)(=O)CC3 | > 100 µM (inactive) | > 100 µM (inactive) | > 100 µM (inactive) | > 100 µM (inactive) | > 100 µM (inactive) | > 100 µM (inactive) | > 100 µM (inactive) | > 100 µM (inactive) | > 100 µM (inactive) | > 100 µM (inactive) | > 100 µM (inactive) | > 100 µM (inactive) | > 100 µM (inactive) | > 100 µM (inactive) | > 100 µM (inactive) | > 100 µM (inactive) | > 100 µM (inactive) | > 100 µM (inactive) | > 100 µM (inactive) | > 100 µM (inactive)
Cc1ccc(C#CS(=O)(=O)C(F)(F)F)cc1 | > 100 µM (inactive) | > 100 µM (inactive) | > 100 µM (inactive) | > 100 µM (inactive) | > 31.6 µM (inactive) | > 100 µM (inactive) | > 100 µM (inactive) | > 31.6 µM (inactive) | > 100 µM (inactive) | > 100 µM (inactive) | > 100 µM (inactive) | > 100 µM (inactive) | > 100 µM (inactive) | > 100 µM (inactive) | > 100 µM (inactive) | > 100 µM (inactive) | > 100 µM (inactive) | > 100 µM (inactive) | > 100 µM (inactive) | > 100 µM (inactive)
Oc1c(Br)ccc2cccnc12 | 11.2 µM (inactive) | 5.06 µM (inactive) | 10.4 µM (inactive) | 3.27 µM (inactive) | 0.895 µM (active) | 1.6 µM (inactive) | 1.15 µM (inactive) | 0.326 µM (active) | 4.32 µM (inactive) | 3.14 µM (inactive) | 1.32 µM (inactive) | 4.81 µM (inactive) | 2.38 µM (inactive) | 20.5 µM (inactive) | 0.521 µM (active) | 8.81 µM (inactive) | 2.88 µM (inactive) | 3.46 µM (inactive) | 0.646 µM (active) | 15.1 µM (inactive)
N#CC1=C(O)NC(O)=C(C#N)C1c1c(Cl)cccc1Cl | 18.8 µM (inactive) | 38.6 µM (inactive) | 11.7 µM (inactive) | 40.7 µM (inactive) | 15.8 µM (inactive) | 20.9 µM (inactive) | 29.4 µM (inactive) | 81.5 µM (inactive) | 33.5 µM (inactive) | 27.3 µM (inactive) | 32.9 µM (inactive) | 37.2 µM (inactive) | 27.3 µM (inactive) | 22.2 µM (inactive) | > 100 µM (inactive) | 23.2 µM (inactive) | 7.8 µM (inactive) | 23.1 µM (inactive) | 30.9 µM (inactive) | 7.93 µM (inactive)
C=CCOCCC(CC=C)C(=O)CC(=O)OC (stereo not given) | > 100 µM (inactive) | > 100 µM (inactive) | 25.9 µM (inactive) | > 100 µM (inactive) | 27.9 µM (inactive) | > 100 µM (inactive) | > 100 µM (inactive) | 13.5 µM (inactive) | > 100 µM (inactive) | > 100 µM (inactive) | > 100 µM (inactive) | > 100 µM (inactive) | > 100 µM (inactive) | > 100 µM (inactive) | 4.23 µM (inactive) | > 100 µM (inactive) | > 100 µM (inactive) | > 100 µM (inactive) | > 100 µM (inactive) | > 100 µM (inactive)
CC(C)CC(N)C(=O)NC(CNC(CCC(N)=O)C(=O)NC(CC(C)C)C(=O)NC(CC(C)C)C(=O)O)Cc1ccc2ccccc2c1 (stereo not given) | > 10 µM (inactive) | > 10 µM (inactive) | > 10 µM (inactive) | > 10 µM (inactive) | > 10 µM (inactive) | > 10 µM (inactive) | > 10 µM (inactive) | > 10 µM (inactive) | > 10 µM (inactive) | > 10 µM (inactive) | > 10 µM (inactive) | > 10 µM (inactive) | > 10 µM (inactive) | > 10 µM (inactive) | > 10 µM (inactive) | > 10 µM (inactive) | > 10 µM (inactive) | > 10 µM (inactive) | > 10 µM (inactive) | > 10 µM (inactive)
